Clc1ccc(COC(Cn2ccnc2)c2ccc(Cl)cc2Cl)cc1.O=[N+]([O-])O (centres undefined)
solubility (mole fraction)
Settings	278.15 K	283.15 K	288.15 K	293.15 K	298.15 K	303.15 K	308.15 K	313.15 K	318.15 K
in 1,4-dioxane	–	–	0.000262	0.000317	0.000393	0.000482	0.000596	0.000729	0.000897
in ethanol	0.000526	0.000656	0.000832	0.00102	0.00125	0.00153	0.00189	0.00228	0.00275
in methanol	0.0015	0.00181	0.00221	0.00266	0.00328	0.00397	0.00479	0.00577	0.00687
in water	1.67e-05	2.05e-05	2.47e-05	2.93e-05	3.44e-05	3.98e-05	4.56e-05	5.16e-05	5.78e-05

— BigSolDB 2.1
